These results are taken from PubChem BioAssay AID256 (DTP/NCI, 2004).

This experiment relates to CD2F1 mice, L1210 leukemia ip, survival T/C. As to the kind of experiment: NCI In Vivo Anticancer Drug Screen. Data for tumor model L1210 Leukemia (intraperitoneal) in CD2F1 (CDF1) mice. Particulars: higher = longer survival. In a few lines: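 Implant tumor; dose compound or vehicle; measure endpoint in both groups; report treated divided by control.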
The mark [1] stands for this setting: endpoint: mean survival time, dose: 100.0 mg/kg/injection, schedule: Q04DX003 (ip), vehicle: saline with Tween-80.
Where [2] appears, read: endpoint: mean survival time, dose: 200.0 mg/kg/injection, schedule: Q04DX003 (ip), vehicle: saline with Tween-80.
Where [3] appears, read: endpoint: mean survival time, dose: 400.0 mg/kg/injection, schedule: Q04DX003 (ip), vehicle: saline with Tween-80.
Setting [4] is: endpoint: mean survival time, dose: 50.0 mg/kg/injection, schedule: Q01DX009 (ip), vehicle: Klucel (hydroxypropylcellulose) (HPC).
The mark [5] stands for this setting: endpoint: mean survival time, dose: 100.0 mg/kg/injection, schedule: Q01DX009 (ip), vehicle: Klucel (hydroxypropylcellulose) (HPC).
Where [6] appears, read: endpoint: mean survival time, dose: 200.0 mg/kg/injection, schedule: Q01DX009 (ip), vehicle: Klucel (hydroxypropylcellulose) (HPC).
The mark [7] stands for this setting: endpoint: mean survival time, dose: 100.0 mg/kg/injection, schedule: Q04DX003 (ip), vehicle: saline.
The mark [8] stands for this setting: endpoint: mean survival time, dose: 25.0 mg/kg/injection, schedule: Q04DX003 (ip), vehicle: saline.
Where [9] appears, read: endpoint: mean survival time, dose: 100.0 mg/kg/injection, schedule: Q01DX009 (ip), vehicle: saline with Tween-80.
Where [10] appears, read: endpoint: mean survival time, dose: 200.0 mg/kg/injection, schedule: Q01DX009 (ip), vehicle: saline with Tween-80.
Setting [11] is: endpoint: mean survival time, dose: 400.0 mg/kg/injection, schedule: Q01DX009 (ip), vehicle: saline with Tween-80.
Setting [12] is: endpoint: mean survival time, dose: 75.0 mg/kg/injection, schedule: Q01DX001 (ip), vehicle: other.
The mark [13] stands for this setting: endpoint: mean survival time, dose: 150.0 mg/kg/injection, schedule: Q01DX001 (ip), vehicle: other.
The mark [14] stands for this setting: endpoint: mean survival time, dose: 100.0 mg/kg/injection, schedule: Q01DX001 (ip), vehicle: saline with Tween-80.
The mark [15] stands for this setting: endpoint: mean survival time, dose: 50.0 mg/kg/injection, schedule: Q01DX009 (ip), vehicle: saline with Tween-80.
[16] abbreviates: endpoint: mean survival time, dose: 25.0 mg/kg/injection, schedule: Q01DX009 (ip), vehicle: saline with Tween-80.
[17] abbreviates: endpoint: mean survival time, dose: 25.0 mg/kg/injection, schedule: Q01DX009 (ip), vehicle: Klucel (hydroxypropylcellulose) (HPC).
[18] abbreviates: endpoint: mean survival time, dose: 200.0 mg/kg/injection, schedule: Q01DX001 (ip), vehicle: saline with Tween-80.

SMILES strings stand for the structures. “And” between values parts separate entries of the source, which are not always exact repeats. Identical values can stand only once. Inconclusive results and toxic doses are left out.

On to `CC(=O)N1CCN(C(C)=O)c2ccccc21`, for which the T/C is 101 % of control under setting [1], 101 % of control under setting [2] and 93 % of control under setting [3].

For `O=C(NCCCCCCNC(=O)Nc1cccc(Cl)c1)Nc1cccc(Cl)c1`, the T/C by setting is: under setting [4], 94 % of control; under setting [5], 91 % of control; under setting [6], 88 % of control.

As for `CC1(C)OCCCO1`, the T/C by setting is: (endpoint: mean survival time, dose: 25.0 mg/kg/injection, schedule: Q04DX002 (ip), vehicle: saline) 104 % of control; (endpoint: mean survival time, dose: 50.0 mg/kg/injection, schedule: Q04DX002 (ip), vehicle: saline) 96 % of control; (endpoint: mean survival time, dose: 100.0 mg/kg/injection, schedule: Q04DX002 (ip), vehicle: saline) 100 % of control.

For the compound `N#CN1CCOCC1`, the T/C was 101 % of control (endpoint: mean survival time, dose: 100.0 mg/kg/injection, schedule: Q01DX009 (ip), vehicle: saline); 91 % of control under setting [7]; 110 % of control (endpoint: mean survival time, dose: 200.0 mg/kg/injection, schedule: Q01DX009 (ip), vehicle: saline); 96 % of control (endpoint: mean survival time, dose: 200.0 mg/kg/injection, schedule: Q04DX003 (ip), vehicle: saline).

With `CC(C)(C)C1SCC(O)CS1` (stereo not given), the T/C runs as follows: (endpoint: mean survival time, dose: 12.5 mg/kg/injection, schedule: Q04DX002 (ip), vehicle: saline with Tween-80) 105 % of control; (endpoint: mean survival time, dose: 25.0 mg/kg/injection, schedule: Q04DX002 (ip), vehicle: saline with Tween-80) 97 % of control; (endpoint: mean survival time, dose: 50.0 mg/kg/injection, schedule: Q04DX002 (ip), vehicle: saline with Tween-80) 97 % of control.

Consider `CC(=O)OC(CC(=O)CC(O)(C(F)(F)F)C(F)(F)F)(C(F)(F)F)C(F)(F)F`, for which the T/C is 95 % of control (endpoint: mean survival time, dose: 6.25 mg/kg/injection, schedule: Q04DX003 (ip), vehicle: saline); 98 % of control (endpoint: mean survival time, dose: 12.5 mg/kg/injection, schedule: Q04DX003 (ip), vehicle: saline); 96 % of control under setting [8].

`COC(=O)CC(=O)c1ccc(OC(C)C)cc1`: the T/C runs as follows: under setting [9], 100 % of control; under setting [1], 87 % of control; under setting [10], 107 % of control; under setting [2], 90 % of control; under setting [11], 104 % of control; under setting [3], 87 % of control.

As to `CN(C=O)NC(=O)Nc1ccccc1`, the T/C runs as follows: (endpoint: mean survival time, dose: 75.0 mg/kg/injection, schedule: Q01DX001 (ip), vehicle: saline) 100 % of control; (endpoint: mean survival time, dose: 150.0 mg/kg/injection, schedule: Q01DX001 (ip), vehicle: saline) 100 % of control; (endpoint: mean survival time, dose: 300.0 mg/kg/injection, schedule: Q01DX001 (ip), vehicle: saline) 102 % of control.

Take `C/C=C(\C)C1(CCC)C(=O)NC(=S)NC1=O`: the T/C is 106 % of control under setting [12] and 116 % of control under setting [13].

For the compound `CC(=O)OCC1OC(n2ccc(O)cc2=O)C(OC(C)=O)C1OC(C)=O` (stereo not given), the T/C runs as follows: (endpoint: median survival time, dose: 44.0 mg/kg/injection, schedule: Q01DX009 (ip), vehicle: saline + alcohol) 154 % of control; (endpoint: median survival time, dose: 67.0 mg/kg/injection, schedule: Q01DX009 (ip), vehicle: saline + alcohol) 164 % of control; (endpoint: median survival time, dose: 100.0 mg/kg/injection, schedule: Q01DX009 (ip), vehicle: saline + alcohol) 174 % of control; (endpoint: median survival time, dose: 150.0 mg/kg/injection, schedule: Q01DX009 (ip), vehicle: saline + alcohol) 165 % of control.

Consider `O=C(C=C(C(F)(F)F)C(F)(F)F)c1cccc(S(=O)(=O)F)c1`, for which, under setting [14], the T/C is 107 % of control.

For `O=C(OC1C=CC2CCC1C2)c1ccc([N+](=O)[O-])cc1` (stereo not given), the T/C under setting [15] is 98 % of control; the T/C under setting [9] is 94 % of control; the T/C under setting [1] was 87 % of control; the T/C under setting [10] was 93 % of control; the T/C under setting [2] was 87 % of control.

Turning to `O=C(C(=O)N1CC2C=CC1C2)c1c[nH]c2ccccc12` (stereo not given), the T/C under setting [9] was 101 % of control; the T/C under setting [1] is 102 % of control; the T/C under setting [10] was 97 % of control; the T/C under setting [2] was 97 % of control; the T/C under setting [11] is 101 % of control; the T/C under setting [3] was 92 % of control.

On to `Cc1cc(C(O)(C(=O)O)c2ccccc2)cc(C)c1C` (stereo not given), for which the T/C reads like this: under setting [12], 100 % of control; under setting [13], 90 % of control; (endpoint: mean survival time, dose: 300.0 mg/kg/injection, schedule: Q01DX001 (ip), vehicle: other) 105 % of control.

Turning to `O=C1c2ccccc2C(=O)N1c1ccc(Cl)cc1`, the T/C (endpoint: mean survival time, dose: 100.0 mg/kg/injection, schedule: Q01DX001 (ip), vehicle: Klucel (hydroxypropylcellulose) (HPC)) was 92 % of control; the T/C (endpoint: mean survival time, dose: 200.0 mg/kg/injection, schedule: Q01DX001 (ip), vehicle: Klucel (hydroxypropylcellulose) (HPC)) was 96 % of control; the T/C (endpoint: mean survival time, dose: 400.0 mg/kg/injection, schedule: Q01DX001 (ip), vehicle: Klucel (hydroxypropylcellulose) (HPC)) was 107 % of control.

`Cc1ccccc1SCCC(=O)O`: the T/C runs as follows: (endpoint: mean survival time, dose: 12.5 mg/kg/injection, schedule: Q01DX009 (ip), vehicle: saline with Tween-80) 101 % of control; under setting [16], 102 % of control; under setting [15], 101 % of control; under setting [9], 97 % of control.

For `CCN(CC)CCCC(C)NC(C)CCCN(CC)CC` (stereo not given), the T/C under setting [17] is 95 % of control and the T/C under setting [4] was 95 % of control.

For the compound `COc1ccc(CC2C(=O)NC(C)C(=O)N(C)C3Cc4ccc(cc4)Oc4cc(ccc4O)CC(C(=O)NC(C)C(=O)NC(C)C(=O)N2C)N(C)C3=O)cc1` (stereo not given), the T/C runs as follows: (endpoint: mean survival time, dose: 1.0 mg/kg/injection, schedule: Q01DX009 (ip), vehicle: saline with Tween-80) 112 % of control; (endpoint: mean survival time, dose: 2.0 mg/kg/injection, schedule: Q01DX009 (ip), vehicle: saline with Tween-80) 112 % of control; (endpoint: mean survival time, dose: 4.0 mg/kg/injection, schedule: Q01DX009 (ip), vehicle: saline with Tween-80) 116 % of control; (endpoint: mean survival time, dose: 16.0 mg/kg/injection, schedule: Q01DX009 (ip), vehicle: saline with Tween-80) 122 % of control; (endpoint: median survival time, dose: 2.0 mg/kg/injection, schedule: Q01DX009 (ip), vehicle: saline with Tween-80) 122 % of control; (endpoint: median survival time, dose: 4.0 mg/kg/injection, schedule: Q01DX009 (ip), vehicle: saline with Tween-80) 124 % of control. For the setting “endpoint: median survival time, dose: 16.0 mg/kg/injection, schedule: Q01DX009 (ip), vehicle: saline with Tween-80”, the T/C was 111 % of control.

`NC(N)=NC1CCCC1`: the T/C by setting is: under setting [16], 102 % of control; under setting [8], 100 % of control; under setting [15], 100 % of control; (endpoint: mean survival time, dose: 50.0 mg/kg/injection, schedule: Q04DX003 (ip), vehicle: saline) 91 % of control; under setting [7], 100 % of control.

Take `CCC(C)C(=O)c1ccccc1` (stereo not given): the T/C reads like this: (endpoint: mean survival time, dose: 50.0 mg/kg/injection, schedule: Q01DX001 (ip), vehicle: saline with Tween-80) 100 % of control; under setting [14], 95 % of control; under setting [18], 100 % of control.

Turning to `CC(=O)OCC(OC(C)=O)C(OC(C)=O)C(OC(C)=O)C(OC(C)=O)OC(C)=O` (stereo not given), the T/C was 94 % of control under setting [14]; 96 % of control under setting [18]; 96 % of control (endpoint: mean survival time, dose: 400.0 mg/kg/injection, schedule: Q01DX001 (ip), vehicle: saline with Tween-80).

Consider `CCN(CC)CCCC(C)Nc1cc(C)nc(Nc2nc3cc(Cl)c(Cl)cc3[nH]2)n1` (stereo not given), for which the T/C runs as follows: (endpoint: mean survival time, dose: 5.0 mg/kg/injection, schedule: Q04DX003 (ip), vehicle: saline with Tween-80) 101 % of control; (endpoint: mean survival time, dose: 10.0 mg/kg/injection, schedule: Q04DX003 (ip), vehicle: saline with Tween-80) 94 % of control; (endpoint: mean survival time, dose: 20.0 mg/kg/injection, schedule: Q04DX003 (ip), vehicle: saline with Tween-80) 91 % of control.

Regarding `Cc1cc(N2C(=O)CCSC2=S)ccc1Cl`, the T/C (endpoint: mean survival time, dose: 12.5 mg/kg/injection, schedule: Q01DX009 (ip), vehicle: Klucel (hydroxypropylcellulose) (HPC)) was 101 % of control and 105 % of control; the T/C under setting [17] is 95 % of control and 103 % of control and 109 % of control; the T/C under setting [4] is 113 % of control and 97 % of control; the T/C under setting [5] was 122 % of control and 123 % of control and 97 % of control; the T/C under setting [6] is 95 % of control and 107 % of control; the T/C (endpoint: mean survival time, dose: 400.0 mg/kg/injection, schedule: Q01DX009 (ip), vehicle: Klucel (hydroxypropylcellulose) (HPC)) is 102 % of control.
